Patent US20190358264A1, “METHODS OF TREATING DISEASES ASSOCIATED WITH ILC2 CELLS” (Limm Therapeutics, SA, priority 2016, published 2019)

Test system: intestinal ILC2s
Test: Ki67 expression in intestinal ILC2s after in vitro stimulation with NmU23
Format: cell-based, mouse
Conditions: NmU23 100 ng/mL overnight
Method: FIGS. 10a-10d: FIG. 10a, Ki67 expression in intestinal ILC2s after an overnight in vitro stimulation with NmU23 alone (100 ng/mL, Phoenix Pharmaceutical) or NmU23 together with the survival cytokines Interleukin (IL)-2 and/or IL-7 (10 ng/mL). FIG. 10b, Ki67 expression in intestine ILC2 after in vivo administration of NmU23 (4 g/day during 2 days). n=5. FIG. 10c, ILC2-derived type 2 cytokines (IL-5, IL-13 and Amphiregulin (Areg)) in sorted intestine ILC2 after an overnight stimulation with NmU23, mouse recombinant IL-25 or IL-33 (R&D) (10, 50 and 100 ng/mL). Negative control: unstimulated ILC2, Positive control: ILC2 activated with phorbol 12-myristate 13-acetate (PMA, 50 ng/ml) plus ionomycin (500 ng/ml). n=3. FIG. 10d, Dot plots representative of the cytokine production with increasing dose of NmU23, rIL-25 and rIL-33. *P<0.05; **P<0.01; ***P<0.001; ****P<0.0001; ns not significant.
For in vitro experiments, purified lung and small intestine lamina propria ILC2s were FBS starved for 2 hours prior to stimulation and cultured in complete RPMI (supplemented with 10% foetal bovine serum (FBS), 1% hepes, sodium pyruvate, glutamine, streptomycin and penicillin) at 37° C. […] For in vivo experiments, B6 mice were injected intraperitoneal with NmU23 peptide (2 g/day) during Nippostrongylus brasiliensis infection or with a single dose of NmU23 (20 μg) and analyzed after 8 hours. […]

recombinant mouse Neuromedin U 23 peptide (FKAEYQSPSVGQSKGYFLFRPRN; listed as Mus musculus) [NmU23, NMUR1 agonist neuropeptide, Phoenix pharmaceuticals]
ILC2 proliferation as measured by Ki67, in vitro: increased ILC2 proliferation
